Results taken from patent US4139628A, “Amino-spiro[oxa(or thia)cycloalkane-penam]-carboxylic acid derivatives” (U C B, Societe Anonyme, priority 1977, dated 1979).

What was measured:
beta-lactamase TEM = assay: hydrolysis kinetics in the presence of beta-lactamase (residual activity); type: biochemical, Gram-negative bacteria; conditions: after incubation for 6 minutes
[1] = tested on: Escherichia coli K 12-44 S; type: cell-based; conditions: E.COLI K 12-44S; relative to ampicillin = 1
Description: It is very sensitive to penicillins due to hyperpermeability.
(§1) The products to be tested are introduced in increasing concentrations into a gelose culture medium in Petri dishes. A multiple inoculator is used to deposit simultaneously drops (10 microliters) of inoculum (suspension of about 10^5 bacteria per ml) onto the surface of the medium. After incubation at 37° C. for 24 hours, the growth of the bacteria is observed. By definition, the MIC is expressed as the minimum concentration of the tested compounds which inhibits the multiplication of the bacteria. In the results which follow, however, the MIC is given as being equal to 1 for the reference compounds and the activity figures given for the tested compounds of general formula (I) are, therefore, relative values. This presentation of the results is more correct and the most reproducible, because, for one and the same bacterial strain, different MIC values can be observed if they are measured at different times. This is bound up with the "seasonal" variations in the strains and their nutrient medium.

[2] = tested on: Escherichia coli B AMPI-R; assay: minimum inhibitory concentration (MIC), gelose culture medium in Petri dishes; type: cell-based; conditions: relative MIC (ampicillin = 1) on E. COLI B versus its beta-lactamase hyperproducer mutant
Description: This is a mutant of the preceding strain, which we have produced.
as §1

beta-lactamase P 99 = target: T1, beta-lactamase P 99 (Enterobacter cloacae, UniProt P05364); assay: hydrolysis kinetics in the presence of beta-lactamase (residual activity); type: biochemical, Gram-negative bacteria; conditions: as compared with ampicillin
T1 construct: source not detailed
T1 sequence (P05364 21-381): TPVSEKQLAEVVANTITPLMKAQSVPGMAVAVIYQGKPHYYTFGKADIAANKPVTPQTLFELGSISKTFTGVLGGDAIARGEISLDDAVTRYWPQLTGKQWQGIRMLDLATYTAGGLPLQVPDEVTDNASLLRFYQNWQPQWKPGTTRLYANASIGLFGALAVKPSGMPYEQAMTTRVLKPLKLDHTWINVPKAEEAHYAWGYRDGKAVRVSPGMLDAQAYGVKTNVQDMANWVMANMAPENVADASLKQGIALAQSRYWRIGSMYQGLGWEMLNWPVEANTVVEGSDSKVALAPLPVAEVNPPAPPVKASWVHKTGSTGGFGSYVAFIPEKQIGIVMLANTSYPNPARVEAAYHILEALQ

| Compound | Remaining activity as percentage (beta-lactamase TEM) [%] | MIC, relative value [1] | difference between the activity on E. COLI B and on E. COLI B Ampi-R (factor) [2] | resistance to beta-lactamase, in words (beta-lactamase P 99) |
| --- | --- | --- | --- | --- |
| N[C@@H](C(=O)NC1C(=O)N2C1SC1(CCOCC1)C2C(=O)O)c1ccccc1 (single isomer, unassigned) [Compound B, 6-(2"-amino-2"-phenylacetamido)-2',3',5',6'-tetrahydro-spiro[penam-2,4'-[4H]pyran]-3-carboxylic acid] | 87 | 1.9 | 3.5 | – |
| NC(C(=O)NC1C(=O)N2C1SC1(CCSCC1)C2C(=O)O)c1ccccc1 (stereo not drawn) [Compound F, 6-(2"-amino-2"-phenylacetamido)-2',3',5',6'-tetrahydro-spiro[penam-2,4'-[4H]thiopyran]-3-carboxylic acid] | – | 15 | – | increased resistance |
| NC(C(=O)NC1C(=O)N2C1SC1(CC[S+]([O-])CC1)C2C(=O)O)c1ccccc1 (stereo not drawn) [Compound J, 6-(2"-amino-2"-phenylacetamido)-2',3',5',6'-tetrahydro-spiro[penam-2,4'-[4H]thiopyran]-3-carboxylic acid 1'-oxide] | – | – | – | No change in behavior |
